The target of test [1] is CXCR3 (Homo sapiens (Human), UniProt P49682). The test is described as follows: Receptor internalization assay. In kind it is cell-based. Summed up: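 In human whole blood, compounds were incubated with CXCL10 (9 nM final) for 30 min at 37 °C to drive receptor internalization, then stained with anti-CXCR3/CD3 antibodies and lysed of red cells. Flow cytometry measured mean surface CXCR3 fluorescence on CD3+ cells, and IC50 came from single-site dose-response fits.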

The target of test [2] is human CXCR3A (Homo sapiens (Human), UniProt P49682). The test is described as follows: FLIPR assay. The class given is cell-based. Particulars: CHO-K1 cells expressing the human CXCR3A coupled to Galpha(16); CXCL10 agonist 20 nM; Fluo-4-AM fluorescence; mean values if determined several times. In outline: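 CHO-K1 cells expressing CXCR3A coupled to Gα16 were loaded with Fluo-4-AM for 1 h in Hepes-buffered HBSS, pH 7.4, with 5 mM probenecid. Compound dilutions were added on the FLIPR, followed by CXCL10 (added as a 20 nM solution). Baseline-subtracted peak fluorescence was fitted to a single-site curve for IC50.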

[3] abbreviates: human whole blood, final CXCL10 concentration 9 nM, 30 min 37° C., CXCR3 cell surface expression on CD3 positive cells, flow cytometer, read-out: Internalization IC50.

Like-named read-outs stand apart in the source and are kept apart here.

Sequence of CXCR3 (P49682 whole entry): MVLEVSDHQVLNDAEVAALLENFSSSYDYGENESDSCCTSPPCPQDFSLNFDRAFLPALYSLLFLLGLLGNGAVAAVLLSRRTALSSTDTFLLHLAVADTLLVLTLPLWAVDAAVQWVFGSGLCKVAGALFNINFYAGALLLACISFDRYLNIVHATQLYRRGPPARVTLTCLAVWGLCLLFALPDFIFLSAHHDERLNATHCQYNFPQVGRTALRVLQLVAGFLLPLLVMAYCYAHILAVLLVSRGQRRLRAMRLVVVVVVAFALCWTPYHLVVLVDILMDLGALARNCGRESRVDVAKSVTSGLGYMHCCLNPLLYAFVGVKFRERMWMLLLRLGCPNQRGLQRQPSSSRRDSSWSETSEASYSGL
Sequence of human CXCR3A (P49682 whole entry): as above

Regarding `CN(C)C[C@@H]1CN(c2scnc2-c2nc3ccccc3[nH]2)CCN1C(=O)Cn1cnc2cccnc21` [Example 229, 1-{(R)-4-[4-(1H-Benzoimidazol-2-yl)-thiazol-5-yl]-2-dimethylaminomethyl-piperazin-1-yl}-2-imidazo[4,5-b]pyridin-3-yl-ethanone], the figures for the IC50 in test [1] (setting [3]) and in test [2] were 98 nM and 1 nM, respectively.
For `C[C@@H]1CN(c2scnc2-c2nc3ccccc3[nH]2)CCN1C(=O)Cn1c(CO)cc2cccnc21` [Example 154, 1-{(R)-4-[4-(1H-Benzoimidazol-2-yl)-thiazol-5-yl]-2-methyl-piperazin-1-yl}-2-(2-hydroxymethyl-pyrrolo[2,3-b]pyridin-1-yl)-ethanone] the same measures were 3040 nM and 14 nM.
Consider `Cn1c(=O)n(CC(=O)N2CCN(c3scnc3-c3nc4cc(Cl)c(Cl)cc4[nH]3)CC2)c2ccccc21` [Example 35, 1-(2-{4-[4-(5,6-Dichloro-1H-benzoimidazol-2-yl)-thiazol-5-yl]-piperazin-1-yl}-2-oxo-ethyl)-3-methyl-1,3-dihydro-benzoimidazol-2-one], for which the IC50 is 1510 nM in test [1] (setting [3]) and 3 nM in test [2].
For `Cc1c(Cl)ccc2nc(-c3ncsc3N3CCN(C(=O)Cn4c(=O)n(C)c5ccccc54)CC3)[nH]c12` [Example 37, 1-(2-{4-[4-(6-Chloro-7-methyl-1H-benzoimidazol-2-yl)-thiazol-5-yl]-piperazin-1-yl}-2-oxo-ethyl)-3-methyl-1,3-dihydro-benzoimidazol-2-one], the IC50 amounted to 1490 nM in test [1] (setting [3]) and 4 nM in test [2].
In the same order, the values of `CCc1nc(-c2nc3ccccc3[nH]2)c(N2CCN(C(=O)Cn3ccc4cccnc43)CC2)s1` [Example 39, 1-{4-[4-(1H-Benzoimidazol-2-yl)-2-ethyl-thiazol-5-yl]-piperazin-1-yl}-2-pyrrolo[2,3-b]pyridin-1-yl-ethanone] are 5880 nM and 15 nM.
For `C[C@@H]1CN(c2sc(C(F)(F)F)nc2-c2nc3ccccc3[nH]2)CCN1C(=O)Cn1cc(C2CCNCC2)cn1` [Example 221, 1-{(R)-4-[4-(1H-Benzoimidazol-2-yl)-2-trifluoromethyl-thiazol-5-yl]-2-methyl-piperazin-1-yl}-2-(4-piperidin-4-yl-pyrazol-1-yl)-ethanone] the same measures were 1090 nM and 6 nM.
As to `C[C@@H]1CN(c2sc(C(F)(F)F)nc2-c2nc3cc(Cl)ccc3[nH]2)CCN1C(=O)Cn1cnc2cccnc21` [Example 147, 1-{(R)-4-[4-(5-Chloro-1H-benzoimidazol-2-yl)-2-trifluoromethyl-thiazol-5-yl]-2-methyl-piperazin-1-yl}-2-imidazo[4,5-b]pyridin-3-yl-ethanone], the IC50 in test [1] was 39 nM; in test [2] it was 1 nM.
On to `Cc1cc2[nH]c(-c3ncsc3N3CCN(C(=O)Cn4ccc5cccnc54)[C@H](C)C3)nc2cc1Cl` [Example 27, 1-{(R)-4-[4-(5-Chloro-6-methyl-1H-benzoimidazol-2-yl)-thiazol-5-yl]-2-methyl-piperazin-1-yl}-2-pyrrolo[2,3-b]pyridin-1-yl-ethanone], for which the IC50 in test [1] (setting [3]) was 314 nM; in test [2], 3 nM.
For `C[C@@H]1CN(c2sc(C(F)(F)F)nc2-c2nc3ccc(N4CCN(C)CC4)cc3[nH]2)CCN1C(=O)Cn1cccn1` [Example 179, 1-((R)-2-Methyl-4-{4-[6-(4-methyl-piperazin-1-yl)-1H-benzoimidazol-2-yl]-2-trifluoromethyl-thiazol-5-yl}-piperazin-1-yl)-2-pyrazol-1-yl-ethanone] the same measures were 138 nM and 2 nM.
With `COC(=O)c1ccn(CC(=O)N2CCN(c3sc(C(F)(F)F)nc3-c3nc4ccccc4[nH]3)C[C@H]2C)n1` [Example 198, 1-(2-{(R)-4-[4-(1H-Benzoimidazol-2-yl)-2-trifluoromethyl-thiazol-5-yl]-2-methyl-piperazin-1-yl}-2-oxo-ethyl)-1H-pyrazole-3-carboxylic acid methyl ester], the IC50 in test [1] (setting [3]) was 6900 nM; in test [2], 2 nM.
With `Cc1nn(CC(=O)N2CCN(c3sc(C(F)(F)F)nc3-c3nc4ccccc4[nH]3)C[C@H]2C)c(C)c1CN(C)C` [Example 214, 1-{(R)-4-[4-(1H-Benzoimidazol-2-yl)-2-trifluoromethyl-thiazol-5-yl]-2-methyl-piperazin-1-yl}-2-(4-dimethylaminomethyl-3,5-dimethyl-pyrazol-1-yl)-ethanone], the IC50 is 72 nM in test [1] (setting [3]) and 2 nM in test [2].
Regarding `Cc1nn(CC(=O)N2CCN(c3sc(C(F)(F)F)nc3-c3nc4ccccc4[nH]3)C[C@H]2C)cc1CN(C)C` [Example 211, 1-{(R)-4-[4-(1H-Benzoimidazol-2-yl)-2-trifluoromethyl-thiazol-5-yl]-2-methyl-piperazin-1-yl}-2-(4-dimethylaminomethyl-3-methyl-pyrazol-1-yl)-ethanone], the IC50 in test [1] (setting [3]) was 227 nM; in test [2], 1 nM.
As to `Cc1ccc2[nH]c(-c3ncsc3N3CCN(C(=O)Cn4c(=O)n(C)c5ccccc54)CC3)nc2c1` [Example 31, 1-Methyl-3-(2-{4-[4-(5-methyl-1H-benzoimidazol-2-yl)-thiazol-5-yl]-piperazin-1-yl}-2-oxo-ethyl)-1,3-dihydro-benzoimidazol-2-one], the IC50 in test [1] (setting [3]) was found to be 540 nM; in test [2], 2 nM.
With `Cc1nc(C)n(CC(=O)N2CCN(c3sc(C(F)(F)F)nc3-c3nc4ccc(C5CCNCC5)cc4[nH]3)C[C@H]2C)n1` [Example 240, 2-(3,5-Dimethyl-[1,2,4]triazol-1-yl)-1-{(R)-2-methyl-4-[4-(6-piperidin-4-yl-1H-benzoimidazol-2-yl)-2-trifluoromethyl-thiazol-5-yl]-piperazin-1-yl}-ethanone], the IC50 was determined as 222 nM in test [1] (setting [3]) and 2 nM in test [2].
In the same order, the values of `C[C@@H]1CN(c2scnc2-c2nc3ccc(C4CC4)cc3[nH]2)CCN1C(=O)Cn1cnc2cccnc21` [Example 162, 1-{(R)-4-[4-(6-Cyclopropyl-1H-benzoimidazol-2-yl)-thiazol-5-yl]-2-methyl-piperazin-1-yl}-2-imidazo[4,5-b]pyridin-3-yl-ethanone] are 181 nM and 1 nM.
For `COC(=O)c1ccc2[nH]c(-c3nc(C(F)(F)F)sc3N3CCN(C(=O)Cn4cnc5cccnc54)[C@H](C)C3)nc2c1` [Example 167, 2-{5-[(R)-4-(2-Imidazo[4,5-b]pyridin-3-yl-acetyl)-3-methyl-piperazin-1-yl]-2-trifluoromethyl-thiazol-4-yl}-1H-benzoimidazole-5-carboxylic acid methyl ester] the same measures were 140 nM and 1 nM.
For `C[C@@H]1CN(c2sc(C(F)(F)F)nc2-c2nc3ccccc3[nH]2)CCN1C(=O)CN1C(=O)Cc2ccccc21` [Example 103, 1-(2-{(R)-4-[4-(1H-Benzoimidazol-2-yl)-2-trifluoromethyl-thiazol-5-yl]-2-methyl-piperazin-1-yl}-2-oxo-ethyl)-1,3-dihydro-indol-2-one] the same measures were 81 nM and 1 nM.
In the case of `Cc1nc(C)n(CC(=O)N2CCN(c3sc(C(F)(F)F)nc3-c3nc4ccccc4[nH]3)C[C@H]2C)n1` [Example 178, 1-{(R)-4-[4-(1H-Benzoimidazol-2-yl)-2-trifluoromethyl-thiazol-5-yl]-2-methyl-piperazin-1-yl}-2-(3,5-dimethyl-[1,2,4]triazol-1-yl)-ethanone], the concentration for half-maximal inhibition (IC50) was 224 nM in test [1] (setting [3]) and 2 nM in test [2].
In the same order, the values of `C[C@@H]1CN(c2sc(C3COC3)nc2-c2nc3ccccc3[nH]2)CCN1C(=O)Cn1cnc2cccnc21` [Example 113, 1-{(R)-4-[4-(1H-Benzoimidazol-2-yl)-2-oxetan-3-yl-thiazol-5-yl]-2-methyl-piperazin-1-yl}-2-imidazo[4,5-b]pyridin-3-yl-ethanone] are 1510 nM and 9 nM.
For `C[C@@H]1CN(c2scnc2-c2nc3cc(Cl)ccc3[nH]2)C[C@H](C)N1C(=O)Cn1cnc2cccnc21` [Example 72, 1-{(2S,6R)-4-[4-(5-Chloro-1H-benzoimidazol-2-yl)-thiazol-5-yl]-2,6-dimethyl-piperazin-1-yl}-2-imidazo[4,5-b]pyridin-3-yl-ethanone] the same measures were 231 nM and 1 nM.
Turning to `Cc1nc(C)n(CC(=O)N2CCN(c3sc(C(F)(F)F)nc3-c3nc4c(F)cccc4[nH]3)C[C@H]2C)n1` [Example 230, 2-(3,5-Dimethyl-[1,2,4]triazol-1-yl)-1-{(R)-4-[4-(4-fluoro-1H-benzoimidazol-2-yl)-2-trifluoromethyl-thiazol-5-yl]-2-methyl-piperazin-1-yl}-ethanone], the IC50 in test [1] (setting [3]) stood at 139 nM; in test [2] it was 1 nM.
Regarding `C[C@@H]1CN(c2sc(CN(C)C)nc2-c2nc3ccccc3[nH]2)CCN1C(=O)Cn1cnc2cccnc21` [Example 223, 1-{(R)-4-[4-(1H-Benzoimidazol-2-yl)-2-dimethylaminomethyl-thiazol-5-yl]-2-methyl-piperazin-1-yl}-2-imidazo[4,5-b]pyridin-3-yl-ethanone], the 50% inhibitory concentration (IC50) was 1130 nM in test [1] (setting [3]) and 27 nM in test [2].
Turning to `Cc1nc(-c2nc3ccccc3[nH]2)c(N2CCN(C(=O)Cn3cnc4cccnc43)[C@H](C)C2)s1` [Example 144, 1-{(R)-4-[4-(1H-Benzoimidazol-2-yl)-2-methyl-thiazol-5-yl]-2-methyl-piperazin-1-yl}-2-imidazo[4,5-b]pyridin-3-yl-ethanone], the IC50 in test [1] (setting [3]) amounted to 933 nM; in test [2] it was 2 nM.
